Each structure is given as a SMILES string.

Common to all, as to assay type: biochemical
Experiment [1] concerns the target T1, full length Aurora-A (AA 1-403) (Homo sapiens, UniProt O14965).
T1 construct: full length Aurora-A (AA 1-403)
T1 sequence (O14965 1-403): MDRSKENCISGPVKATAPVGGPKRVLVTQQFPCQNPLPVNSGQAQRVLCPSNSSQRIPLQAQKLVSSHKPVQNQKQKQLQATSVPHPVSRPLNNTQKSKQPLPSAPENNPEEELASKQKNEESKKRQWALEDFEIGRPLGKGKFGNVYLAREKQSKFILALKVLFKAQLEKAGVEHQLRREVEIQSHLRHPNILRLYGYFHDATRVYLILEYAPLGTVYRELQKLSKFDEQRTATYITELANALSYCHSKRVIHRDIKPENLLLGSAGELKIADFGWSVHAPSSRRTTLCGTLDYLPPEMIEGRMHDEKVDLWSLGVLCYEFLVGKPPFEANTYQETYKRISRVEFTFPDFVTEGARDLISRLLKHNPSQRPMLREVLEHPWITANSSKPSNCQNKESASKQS
In words: Aurora-A inhibition assay, standard coupled enzyme system. As to conditions: average Ki if more than one value determined.

The next experiment deals with Aurora-B (Homo sapiens, UniProt Q96GD4). In words: Aurora-B inhibition assay, radioactive assay. The note with it: average Ki if more than one value determined. The method in brief: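 Aurora-B protein substituted into the standard radioactive kinase format: reaction quenched with TCA, product captured on glass fiber filters and 33P counted. Ki(app) derived by fitting background-corrected counts against inhibitor concentration.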
Chain of Aurora-B (Q96GD4 whole entry): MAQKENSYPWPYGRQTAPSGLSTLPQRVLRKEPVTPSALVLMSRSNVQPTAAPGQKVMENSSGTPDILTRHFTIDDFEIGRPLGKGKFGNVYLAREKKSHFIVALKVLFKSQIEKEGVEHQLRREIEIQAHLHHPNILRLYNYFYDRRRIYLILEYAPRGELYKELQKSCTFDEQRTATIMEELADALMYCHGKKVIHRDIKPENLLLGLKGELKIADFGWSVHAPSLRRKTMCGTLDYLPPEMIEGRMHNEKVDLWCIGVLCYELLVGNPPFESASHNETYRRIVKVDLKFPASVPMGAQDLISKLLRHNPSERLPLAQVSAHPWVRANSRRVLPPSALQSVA

Another experiment concerns the target T2, Aurora-C (Homo sapiens, UniProt Q9UQB9).
T2 sequence (Q9UQB9 1-309): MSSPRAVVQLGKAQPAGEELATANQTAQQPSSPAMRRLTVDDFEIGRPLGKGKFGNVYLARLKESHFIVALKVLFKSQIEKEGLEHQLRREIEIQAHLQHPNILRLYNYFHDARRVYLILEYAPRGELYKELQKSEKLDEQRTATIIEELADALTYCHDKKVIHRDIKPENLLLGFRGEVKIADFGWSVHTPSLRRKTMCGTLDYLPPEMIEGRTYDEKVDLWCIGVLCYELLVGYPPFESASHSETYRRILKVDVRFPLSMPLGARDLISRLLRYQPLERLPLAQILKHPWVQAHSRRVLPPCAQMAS
In words: Aurora-C inhibition assay, coupled enzyme system as for Aurora-A. The note with it: average Ki if more than one value determined. As to the method: Compounds were screened for their ability to inhibit full length Aurora-A (AA 1-403) activity using a standard coupled enzyme system (Fox et al., Protein Sci. 7, pp. 2249 (1998)). Reactions were carried out in a solution containing 100 mM HEPES (pH 7.5), 10 mM MgCl2, 25 mM NaCl, 300 μM NADH, 1 mM DTT and 3% DMSO. Final substrate concentrations in the assay were 200 μM ATP (Sigma Chemicals, St Louis, Mo.) and 800 μM peptide (LRRASLG, American Peptide, Sunnyvale, Calif.). Reactions were carried out at 30° C. and 35 nM Aurora-A. Final concentrations of the components of the coupled enzyme system were 2.5 mM phosphoenolpyruvate, 200 μM NADH, 60 μg/ml pyruvate kinase and 20 μg/ml lactate dehydrogenase.
An assay stock buffer solution was prepared containing all of the reagents listed above with the exception of ATP and the test compound of interest. The assay stock buffer solution (60 μl) was incubated in a 96 well plate with 2 μl of the test compound of interest at final concentrations spanning 0.002 μM to 30 μM at 30° C. for 10 min. Typically, a 12 point titration was conducted by preparing serial dilutions (from 1 mM compound stocks) with DMSO of the test compounds in daughter plates. The reaction was initiated by the addition of 5 μl of ATP (final concentration 200 μM). Rates of reaction were obtained using a Molecular Devices Spectramax plate reader (Sunnyvale, Calif.) over 10 min at 30° C. The Ki values were determined from the rate data as a function of inhibitor concentration using computerized nonlinear regression (Prism 3.0, Graphpad Software, San Diego, Calif.). Aurora-C activity was screened in a similar manner using Aurora-C protein. Aurora-B activity was screened using a radioactive assay, such as described in Examples 1 and 2, but using Aurora-B protein.

A further experiment has as its target T3, ROCK I (AA 6-553) (Homo sapiens, UniProt Q13464).
T3 construct: ROCK I (AA 6-553)
Briefly: ROCK inhibition assay, standard coupled enzyme system ("Enzyme"). The note with it: enzyme-linked assay. The method in brief:
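ROCK I (AA 6-553) at 45 nM and 30 °C with 45 μM ATP and 200 μM peptide, in 100 mM HEPES pH 7.5, 10 mM MgCl2, 25 mM NaCl, 2 mM DTT, 1.5% DMSO. ADP output read by a PK/LDH coupled system: 2.5 mM PEP, 350 μM NADH, 30 μg/ml PK, 10 μg/ml LDH.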

The next experiment deals with T4, JAK3 (Homo sapiens, UniProt P52333).
T4 sequence (P52333 1-1124): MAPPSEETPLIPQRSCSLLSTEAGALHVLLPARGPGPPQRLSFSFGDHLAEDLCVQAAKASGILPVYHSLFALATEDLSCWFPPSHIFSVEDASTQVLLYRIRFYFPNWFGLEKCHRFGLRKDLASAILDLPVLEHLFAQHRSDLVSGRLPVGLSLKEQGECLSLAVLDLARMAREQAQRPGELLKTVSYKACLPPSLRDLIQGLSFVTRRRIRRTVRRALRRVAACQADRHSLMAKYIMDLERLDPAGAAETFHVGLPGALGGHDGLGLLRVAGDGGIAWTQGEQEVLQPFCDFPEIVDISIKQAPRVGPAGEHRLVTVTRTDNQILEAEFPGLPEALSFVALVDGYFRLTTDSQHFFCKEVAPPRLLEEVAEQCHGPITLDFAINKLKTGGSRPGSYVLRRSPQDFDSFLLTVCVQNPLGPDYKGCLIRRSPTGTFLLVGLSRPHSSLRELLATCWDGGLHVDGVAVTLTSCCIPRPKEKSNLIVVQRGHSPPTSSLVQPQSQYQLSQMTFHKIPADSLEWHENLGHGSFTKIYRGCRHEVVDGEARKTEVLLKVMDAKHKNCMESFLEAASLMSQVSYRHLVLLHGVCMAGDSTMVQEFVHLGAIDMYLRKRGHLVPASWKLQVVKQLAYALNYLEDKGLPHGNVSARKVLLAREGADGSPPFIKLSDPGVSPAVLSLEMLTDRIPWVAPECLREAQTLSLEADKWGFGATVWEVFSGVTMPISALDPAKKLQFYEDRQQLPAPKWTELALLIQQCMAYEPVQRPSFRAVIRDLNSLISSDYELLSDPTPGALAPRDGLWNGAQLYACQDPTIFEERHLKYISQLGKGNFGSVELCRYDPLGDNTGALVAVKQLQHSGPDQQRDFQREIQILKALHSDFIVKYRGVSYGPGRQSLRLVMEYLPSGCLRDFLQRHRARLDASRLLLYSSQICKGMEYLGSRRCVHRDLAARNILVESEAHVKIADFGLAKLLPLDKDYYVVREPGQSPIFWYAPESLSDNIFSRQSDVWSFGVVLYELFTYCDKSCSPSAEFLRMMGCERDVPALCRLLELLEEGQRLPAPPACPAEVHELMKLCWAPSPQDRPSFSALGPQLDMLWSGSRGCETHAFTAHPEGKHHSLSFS
In words: JAK3 inhibition assay (standard radioactive enzyme assay). As to conditions: average Ki if more than one value determined.

T3 sequence (Q13464 6-553, species assumed): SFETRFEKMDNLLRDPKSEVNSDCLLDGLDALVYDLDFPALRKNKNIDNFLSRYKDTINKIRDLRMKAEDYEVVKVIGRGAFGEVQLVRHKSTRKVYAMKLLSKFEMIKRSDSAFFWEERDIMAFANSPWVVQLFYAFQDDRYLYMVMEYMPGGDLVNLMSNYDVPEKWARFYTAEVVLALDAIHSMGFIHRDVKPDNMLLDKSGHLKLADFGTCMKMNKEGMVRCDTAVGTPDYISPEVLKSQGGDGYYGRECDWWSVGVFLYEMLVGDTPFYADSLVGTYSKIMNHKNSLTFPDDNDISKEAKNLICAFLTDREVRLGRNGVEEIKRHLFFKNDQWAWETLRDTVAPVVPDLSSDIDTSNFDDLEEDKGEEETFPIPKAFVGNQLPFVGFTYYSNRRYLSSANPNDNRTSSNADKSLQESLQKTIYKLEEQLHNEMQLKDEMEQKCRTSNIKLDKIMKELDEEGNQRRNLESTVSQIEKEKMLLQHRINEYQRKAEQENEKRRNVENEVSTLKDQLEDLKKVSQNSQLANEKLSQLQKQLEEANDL

`C[C@H](Nc1nc(-c2c[nH]c3ncc(Cl)cc23)ncc1F)C(=O)NCCC#N` [Compound 461]: the Ki (in experiment [1]; on Aurora-B; on Aurora-C) was under 500 nM throughout.
For `Fc1cnc(-c2c[nH]c3ncc(Cl)cc23)nc1NC1CCOCC1` [Compound 348], the Ki (as a rule, a dissociation constant, usually derived from enzyme kinetics or from competition with a known ligand) at ROCK I (AA 6-553) is 500 to 5000 nM; in experiment [1], under 500 nM; on Aurora-B, under 500 nM; at Aurora-C, under 500 nM.
Take `CC(C)S(=O)(=O)NCCNC(=O)[C@H](C)Nc1nc(-c2c[nH]c3ncc(Cl)cc23)ncc1F` [Compound 454]: the Ki on ROCK I (AA 6-553) was 500 to 5000 nM; in experiment [1] it was under 500 nM; at Aurora-B, 500 to 5000 nM; on Aurora-C, 500 to 5000 nM.
For the compound `Fc1cnc(-c2c[nH]c3ncc(Cl)cc23)nc1NCC1CCNCC1` [Compound 327], the Ki (on ROCK I (AA 6-553); in experiment [1]; on Aurora-B; at Aurora-C) was under 500 nM in each case.
With `C[C@H](Nc1nc(-c2c[nH]c3ncc(Cl)cc23)ncc1F)c1cccc(N)c1` [Compound 333], the Ki was 500 to 5000 nM on ROCK I (AA 6-553), under 500 nM in experiment [1], under 500 nM at Aurora-B and under 500 nM on Aurora-C.
Turning to `C[C@H](Nc1nc(-c2c[nH]c3ncc(Cl)cc23)ncc1F)c1ccc(F)cc1` [Compound 285], the Ki at ROCK I (AA 6-553) is 500 to 5000 nM; in experiment [1], under 500 nM; on Aurora-B, under 500 nM; on Aurora-C, under 500 nM.
Take `Fc1cnc(-c2c[nH]c3ncc(Cl)cc23)nc1NC1CCCCC1` [Compound 356]: the Ki was 500 to 5000 nM at ROCK I (AA 6-553), under 500 nM in experiment [1], under 500 nM on Aurora-B and under 500 nM at Aurora-C.
Take `CNC(=O)[C@@H](Nc1nc(-c2c[nH]c3ncc(Cl)cc23)ncc1F)C(C)C` [Compound 362]: the Ki on ROCK I (AA 6-553) is 500 to 5000 nM; in experiment [1] it was under 500 nM; at Aurora-B, under 500 nM; at Aurora-C it was under 500 nM.
As for `O=C(CNc1nc(-c2c[nH]c3ncc(Cl)cc23)nc2ccccc12)NCC(F)(F)F` [Compound 427], the Ki at ROCK I (AA 6-553) is 500 to 5000 nM; in experiment [1] it was under 500 nM; at Aurora-B it was 500 to 5000 nM; on Aurora-C, 500 to 5000 nM.
As for `C[C@H](Nc1nc(-c2c[nH]c3ncc(Cl)cc23)ncc1C#N)C(=O)NCC(F)(F)F` [Compound 420], the Ki on ROCK I (AA 6-553) is 500 to 5000 nM; in experiment [1], under 500 nM; at Aurora-B, under 500 nM; on Aurora-C it was under 500 nM.
For the compound `CNC(=O)[C@H](C)Nc1nc(-c2c[nH]c3ncc(Cl)cc23)ncc1F` [Compound 340], the Ki was 500 to 5000 nM on ROCK I (AA 6-553), under 500 nM in experiment [1], under 500 nM at Aurora-B and under 500 nM on Aurora-C.
Turning to `C[C@@H](Nc1cccc(-c2c[nH]c3ncc(Cl)cc23)n1)c1ccccc1` [Compound 260], the Ki is 500 to 5000 nM on ROCK I (AA 6-553), under 500 nM in experiment [1] and under 500 nM at Aurora-C.
On to `CNC(=O)CNc1nc(-c2c[nH]c3ncc(Cl)cc23)ncc1C(C)C` [Compound 430], for which the Ki on ROCK I (AA 6-553) is 500 to 5000 nM; in experiment [1] it was under 500 nM; on Aurora-B, 500 to 5000 nM; at Aurora-C, 500 to 5000 nM.
With `CC(C)c1cnc(-c2c[nH]c3ncc(Cl)cc23)nc1N[C@@H](C)C(=O)NCC(F)(F)F` [Compound 429], the Ki is 500 to 5000 nM on ROCK I (AA 6-553), under 500 nM in experiment [1], 500 to 5000 nM on Aurora-B and 500 to 5000 nM at Aurora-C.
Turning to `C[C@H](Nc1nc(-c2c[nH]c3ncc(Cl)cc23)ncc1F)C(=O)NCCNC(=O)OCc1ccccc1` [Compound 458], the Ki (in experiment [1]; on Aurora-B; on Aurora-C) was under 500 nM throughout.
In the case of `C[C@H](Nc1nc(-c2c[nH]c3ncc(Cl)cc23)ncc1F)C(=O)NCCO` [Compound 391], the Ki on JAK3 is under 500 nM; on ROCK I (AA 6-553), 500 to 5000 nM; in experiment [1], under 500 nM; at Aurora-C, under 500 nM.
For the compound `C#Cc1cnc(-c2c[nH]c3ncc(Cl)cc23)nc1N[C@@H](C)C(=O)NCC(F)(F)F` [Compound 411], the Ki at ROCK I (AA 6-553) is 500 to 5000 nM; in experiment [1], under 500 nM; on Aurora-C it was under 500 nM.
`C[C@H](Nc1cccc(-c2c[nH]c3ncc(Cl)cc23)n1)c1ccccc1` [Compound 252]: the Ki was 500 to 5000 nM on ROCK I (AA 6-553), under 500 nM in experiment [1] and under 500 nM on Aurora-C.
Consider `C[C@H](Nc1nc(-c2c[nH]c3ncc(Cl)cc23)ncc1F)c1cccc(NC(=O)OC(C)(C)C)c1` [Compound 331], for which the Ki is 500 to 5000 nM at ROCK I (AA 6-553), under 500 nM in experiment [1] and under 500 nM on Aurora-C.
As to `CCS(=O)(=O)NCCNC(=O)[C@H](C)Nc1nc(-c2c[nH]c3ncc(Cl)cc23)ncc1F` [Compound 445], the Ki was under 500 nM in experiment [1], 500 to 5000 nM on Aurora-B and under 500 nM on Aurora-C.
For the compound `O=C(CNc1nc(-c2c[nH]c3ncc(Cl)cc23)ncc1F)NCC(F)(F)F` [Compound 400], the Ki on ROCK I (AA 6-553) is 500 to 5000 nM; in experiment [1], under 500 nM; at Aurora-C, under 500 nM.
For the compound `COc1cnc(-c2c[nH]c3ncc(Cl)cc23)nc1N[C@@H](C)C(=O)NCC(F)(F)F` [Compound 407], the Ki was 500 to 5000 nM on ROCK I (AA 6-553), under 500 nM in experiment [1] and under 500 nM on Aurora-C.

(Values after patent US8501446B2 (Vertex Pharmaceuticals Incorporated, priority 2004, dated 2013).)
